Experimental data reported in the supplement of paper PMC8920030.

What was measured:
Conditions in all cases: growth mode: biofilm, 24 h; exposure time: 24 h
colistin [1] = compound: T1, CCC(C)CCCC(=O)N[C@@H](CCN)C(=O)N[C@H](C(=O)N[C@@H](CCN)C(=O)N[C@H]1CCNC(=O)[C@H]([C@@H](C)O)NC(=O)[C@H](CCN)NC(=O)[C@H](CCN)NC(=O)[C@H](CC(C)C)NC(=O)[C@@H](CC(C)C)NC(=O)[C@H](CCN)NC1=O)[C@@H](C)O [colistin]; test: minimum concentration eradicating biofilm below detection limit (MCK-E); higher = more biofilm tolerance
Description: (§1)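 Clinical P. aeruginosa isolates were grown as static biofilms for 24 h at 37 °C in LB in half-area 96-well plates, then exposed for 24 h to colistin at 1, 4, 16, 64, 256 or […]. Surviving CFU were counted by spotting serial dilutions. MCK is the lowest tested concentration giving the stated log reduction in CFU versus an untreated control; '>1024' means the reduction was not reached at the top dose, and 1 is the lowest dose tested (≤1).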

tobramycin [2] = compound: T2, NC[C@H]1O[C@H](O[C@H]2[C@H](O)[C@@H](O[C@H]3O[C@H](CO)[C@@H](O)[C@H](N)[C@H]3O)[C@H](N)C[C@@H]2N)[C@H](N)C[C@@H]1O [tobramycin]; test: as above
Description: (§2)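 Clinical P. aeruginosa isolates were grown as static biofilms for 24 h at 37 °C in LB in half-area 96-well plates, then exposed for 24 h to tobramycin at 1, 4, 16, 64, 256 or […]. Surviving CFU were counted by spotting serial dilutions. MCK is the lowest tested concentration giving the stated log reduction in CFU versus an untreated control; '>1024' means the reduction was not reached at the top dose, and 1 is the lowest dose tested (≤1).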

colistin [3] = compound: T1, colistin; test: minimum concentration of killing, 1-log CFU reduction of biofilm (MCK90); higher = more biofilm tolerance
Description: as §1

colistin [4] = compound: T1, colistin; test: minimum concentration of killing, 2-log CFU reduction of biofilm (MCK99); higher = more biofilm tolerance
Description: as §1

tobramycin [5] = compound: T2, tobramycin; test: minimum concentration of killing, 1-log CFU reduction of biofilm (MCK90); higher = more biofilm tolerance
Description: as §2

tobramycin [6] = compound: T2, tobramycin; test: minimum concentration of killing, 2-log CFU reduction of biofilm (MCK99); higher = more biofilm tolerance
Description: as §2

colistin [7] = compound: T1, colistin; test: minimum concentration of killing, 4-log CFU reduction of biofilm (MCK99.99); higher = more biofilm tolerance
Description: as §1

tobramycin [8] = compound: T2, tobramycin; test: as above
Description: as §2

Row | Test System | minimum concentration eradicating biofilm below detection limit (colistin [1]) [µg/mL] | minimum concentration eradicating biofilm below detection limit (tobramycin [2]) [µg/mL] | minimum concentration of killing (colistin [3]) [µg/mL] | minimum concentration of killing (colistin [4]) [µg/mL] | minimum concentration of killing (tobramycin [5]) [µg/mL] | minimum concentration of killing (tobramycin [6]) [µg/mL] | minimum concentration of killing (colistin [7]) [µg/mL] | minimum concentration of killing (tobramycin [8]) [µg/mL]
1 | Pseudomonas aeruginosa clinical isolate ESP067 | 256 | 1020 | 64 | 256 | 4 | 16 | 256 | 256
2 | Pseudomonas aeruginosa clinical isolate F1706 | 256 | 256 | 256 | 256 | 4 | 16 | 256 | 16
3 | Pseudomonas aeruginosa clinical isolate F2020 | 256 | 1020 | 16 | 64 | 16 | 16 | 64 | 256
4 | Pseudomonas aeruginosa clinical isolate ESP077 | 256 | > 1020 | 64 | 64 | 1020 | 1020 | 256 | 1020
5 | Pseudomonas aeruginosa clinical isolate ESP003 | 256 | 1020 | 256 | 256 | 16 | 256 | 256 | 1020
6 | Pseudomonas aeruginosa clinical isolate ESP039 | 64 | 256 | 64 | 64 | 4 | 16 | 64 | 64
7 | Pseudomonas aeruginosa clinical isolate ESP054 | 256 | 256 | 64 | 256 | 4 | 4 | 256 | 256
8 | Pseudomonas aeruginosa clinical isolate ESP046 | 256 | 1020 | 256 | 256 | 16 | 1020 | 256 | 1020
9 | Pseudomonas aeruginosa clinical isolate F1758 | 256 | 1020 | 64 | 256 | 16 | 256 | 256 | 1020
10 | Pseudomonas aeruginosa clinical isolate ESP031 | 256 | 1020 | 256 | 256 | 1020 | 1020 | 256 | 1020
11 | Pseudomonas aeruginosa clinical isolate ESP060 | 1020 | > 1020 | 256 | 256 | > 1020 | > 1020 | 1020 | > 1020
12 | Pseudomonas aeruginosa clinical isolate F1764 | 64 | > 1020 | 16 | 64 | 16 | 64 | 64 | 1020
13 | Pseudomonas aeruginosa clinical isolate ESP006 | 256 | 1020 | 64 | 64 | 16 | 64 | 64 | 256
14 | Pseudomonas aeruginosa clinical isolate F1880 | 256 | 1020 | 256 | 256 | 64 | 1020 | 256 | 1020
